These results are taken from patent publication US20240058240A1, “COMPOUNDS AS SELF-TANNING SUBSTANCES AND TANNING COMPOSITIONS THEREOF” (CHEMCOM S.A., priority 2020, published 2024).

Holding throughout (format): cell-based
Data set [1] relates to Normal Human Epidermal Melanocytes moderately pigmented (NHEMs-MP). Description: Melanin content (pigmentation) of NHEMs-MP in culture. Particulars: 3.16 μM, 4 days, NHEMs-MP, in comparison with DOPA (50 μM). The protocol:
This primary culture was cultivated in medium M254 supplemented (LIFE TECHNOLOGIES; ref:M-254-500) with HMGS (human melanocyte growth supplement; LIFE TECHNOLOGIES; ref: S-002-5) and gentamycin (LIFE TECHNOLOGIES; ref:15710-049) and maintained in a humidified incubator at 37° C. with a 5% CO2 atmosphere. For experiments (see below), cells were seeded at a density of 9×10^4 cells/well (100 μL/well) and cultured at 37° C. under a 5% CO2.
The NHEMs-MP were treated for 4 days, with a medium refresh after 2 days of treatment—Amberketal, Ambermax and with the reference molecule (L-DOPA)—when the culture media are collected and stored at −80° C. as shown in FIG. 2. At the end of the treatments, the culture media were collected a second time, pooled with the media collected at day 2 and centrifuged for 30 minutes (14000 rpm). The pellet obtained after centrifugation and NHEMs-MP treated cells were lysed in 150 μl of a NaOH 1M solution. 5 μl of each cell lysate were used for protein quantification using BCA protein assay. The remaining 145 μl of the lysates were heated at 80° C. during 1 h. The optical density was measured at 490 nm and the melanin content was determined by comparison with a standard curve of synthetic melanin and reported to the quantity of protein present in each cell well tested.
The effects of these 2 compounds, namely Ambermax and Amberketal, on the melanin production were evaluated as described above. Based on MTS results, moderately pigmented (MP) NHEMs were treated with these 2 compounds at one concentration (100 μM for Amberketal and 3.16 μM for Ambermax) for 4 days. In parallel, cell cultures were also treated with Ethanol 0.1%, a concentration corresponding to the test compounds solvent, and with a known modulator of pigmentation (L-DOPA 50 μM). […] At the end of the treatments (D4), cells were lysed, the melanin content was quantified by spectrophotometry and normalized to the amount of proteins. Extracellular melanin was also evaluated by the same methodology after centrifugation of the culture media.

In data set [2] the test system is human skin explants. The data set is described as follows: Cellular viability of human skin living explants (Masson's trichrome, Goldner variant). How it is done:
Human skin explants of an average diameter of 12 mm (±1 mm) were prepared on an abdoplasty coming from a person (reference: P2237AB47—phototype II) or person (reference P2196-AB61, phototype III). The explants were kept in survival in BEM culture medium (BIO-EC's Explants Medium) at 37° C. in a humid, 5%-CO2 atmosphere.
The Ambermax was diluted in 0.1% ethanol at the following concentrations: 0.3 μM, 1 μM, 3 μM, 10 μM, 15 μM, 30 μM and 100 μM. The diluted solutions were stored at 4° C. during the study.
The explants were treated for 10 days with Ambermax (see products application below) or with no treatment.
On day 0 (DO), day 3 (D3), day 5 (D5), day 7 (D7) and day 10 (D10), the tested products (compounds for use in the invention) were 1) applied topically using a small spatula based on 2 μl per explant (2 mg per cm^2) at the indicated concentrations, 2) applied intradermatically by injections into the dermis using a syringe with 20 μL of product for each explant or 3) applied systemically by dilutions of the compound of invention in the culture media at the indicated concentration. […] The culture medium was half renewed (1 ml/well) on day 3, day 5, day 7 and day 10.
On day 0 (D0), D2, D3, D6, and D8, the tested products (compounds for use in the invention) were applied topically using a small spatula on the basis of 2 μl per explant (2 mg per cm^2). […] The culture medium was half renewed (1 ml/well) on D2, D3, D6 and D8.
After fixation for 24 hours in buffered formalin solution, the samples were dehydrated and impregnated in paraffin using a Leica PEARL dehydration automat. The samples were then paraffin-embedded using a Leica EG 1160 embedding station. 5-μm-thick sections of paraffin-embedded formol fixed sections were realized using a Leica RM 2125 Minot-type microtome, and the sections were then mounted on Superfrost® Plus glass slides. Microscopical observations were realized using a Leica DMLB, a BX43 or BX63 Olympus microscope. Pictures were digitized with an Olympus DP72 or DP74 camera and the Cell^D or cellSens data storing software.
The cell viability of epidermal and papillary dermal structures was observed on formalin-fixed paraffin-embedded (FFPE) skin sections after Masson's trichrome staining, Goldner variant. The cell viability was assessed by microscopical observation. Concerned batches: T0, (TUV, P1→P10) on D5 or D6 and D10.
The effects ex vivo was shown by treating human biopsies for 10 days (human living explants: 12 mm+/−1, donor, skin type III) with a systemic application, intradermic injections or a topical application of compounds according to embodiments of the invention (Ambermax). Concentrations of 1, 5 and 10 μM of this compound were used for systemic application and intradermic injections on the human explants. For topical application, biopsies were treated with 10, 30, and 100 μM of Ambermax. As control, non-treated explants or/and explants exposed to chronic UVA-irradiations were used as described in the experimental procedures.

Data set [3] relates to human skin explants. The data set is described as follows: Melanogenesis in human skin living explants (Masson's Fontana staining, image analysis). As to conditions: systemic treatment, 3 and 5 μM, after 5 days, compared with chronic UVA.

With Ambermax [Compound 16], in data set [1] (p<0.01, n=10), the “increase of melanin present in the media (extracellular)” value is on record as “+123%”. Moreover, the “increase of intracellular melanin content” value in data set [1] (p<0.01, n=12) is recorded as “+46%”. Besides, the explant toxicity result in data set [2] (0.3-100 μM, 3 different ways of application) is on record as “doesn't induce explant toxicity”. Further, the explant viability result in data set [2] (D5 and D10, 3 concentrations, 3 methods of application (topical, systemic, intradermal), skin type III) is on record as “no significant alterations of explant viability”. In addition, the explant alterations entry in data set [2] (application of 100 μM, D10) is recorded as “very slight alterations”. Besides, in data set [2] (topical administration, 100 μM), the “alteration of the papillary dermis” value is given as “no modification of the papillary dermis” and the “explant viability in the epidermis (macroscopic evaluation)” value was “very slight decrease in the viability”. The melanogenesis result in data set [3] is reported as “rise of melanogenesis equivalent to the one obtained with a chronic UVA irradiation”.
